The source of these data is patent US10870638B2, “Pyridazinone compound or its salt, and herbicide containing it” (ISHIHARA SANGYO KAISHA, LTD., priority 2016, dated 2020).

SMILES strings stand for the structures.

Format in all cases: in vivo
The subject of assay [1] is green foxtail (Setaria viridis L.). Kind of assay: Test Example 1: foliar treatment, growth inhibition rate on 14th day. As to conditions: active ingredient amount 31 g/ha, 14th day after application, visual, 0 = non-treated, 100 = complete kill. Put shortly: (§1)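 Using a small sprayer, formulated compound in water (0.1 vol % surfactant, 1,000 L/ha) was applied to seedlings grown from seed in upland soil. Fourteen days on, growth state was observed and expressed as percent inhibition from 0 to 100.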

In assay [2] the test system is crabgrass (Digitaria sanquinalis L.). The description is as above. As to conditions: active ingredient amount 31 g/ha, 14th day after application, visual, 0 = non-treated, 100 = complete kill. The method in brief: (§2)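 Visual 0–100% inhibition scoring (100 = complete kill) at 14 days after foliar treatment of soil-grown seedlings at species-specific leaf stages, with the compound sprayed as a wettable powder or emulsifiable concentrate dilution.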

Assay [3] has as its system corn (Zea mays L.). The description is as above. As to conditions: active ingredient amount 31 g/ha, 14th day after application, visual, 0 = non-treated, 100 = complete kill. Put shortly: as §2
Assay [4] relates to wheat (Triticum aestivum L.). The assay is described as above. As to conditions: active ingredient amount 31 g/ha, 14th day after application, visual, 0 = non-treated, 100 = complete kill. Put shortly:
as §2

The test system of assay [5] is barnyardgrass (Echinochloa crus-qalli L.). The description is as above. As to conditions: active ingredient amount 31 g/ha, 14th day after application, visual, 0 = non-treated, 100 = complete kill. Put shortly:
as §2

Assay [6] concerns soybean (Glycine max Merr.). The description is as above. As to conditions: active ingredient amount 31 g/ha, 14th day after application, visual, 0 = non-treated, 100 = complete kill. The method in brief: as §1
Assay [7] deals with wild oat (Avena fatua L.). Described as above. As to conditions: active ingredient amount 31 g/ha, 14th day after application, visual, 0 = non-treated, 100 = complete kill. The method in brief: as §1
The test system of assay [8] is rice (Oryza sativa L.). The description is as above. As to conditions: active ingredient amount 31 g/ha, 14th day after application, visual, 0 = non-treated, 100 = complete kill. Put shortly: as §1
For assay [9], the system named is redroot pigweed (Amaranthus retroflexus L.). Described as above. As to conditions: active ingredient amount 31 g/ha, 14th day after application, visual, 0 = non-treated, 100 = complete kill. The method in brief: as §2
The subject of assay [10] is italian ryegrass (Lolium multiflorum Lam.). The assay is described as above. As to conditions: active ingredient amount 31 g/ha, 14th day after application, visual, 0 = non-treated, 100 = complete kill. The method in brief:
as §2

Assay [11] concerns green foxtail (Setaria viridis L.). The assay can be described thus: Test Example 2: soil application on the day after sowing, growth inhibition rate on 14th day. As to conditions: active ingredient amount 31 g/ha, 14th day after application. The method in brief:
(§3)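 Herbicidal effect is assessed on pot-grown plants after a soil spray applied the day after sowing at prescribed active ingredient rates. Scoring occurs visually at day 14 as growth inhibition (%).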

In assay [12] the test system is corn (Zea mays L.). The assay is described as above. As to conditions: active ingredient amount 31 g/ha, 14th day after application. The method in brief: as §3
Assay [13] deals with wheat (Triticum aestivum L.). Described as above. As to conditions: active ingredient amount 31 g/ha, 14th day after application. The method in brief:
as §3

Assay [14] deals with barnyardgrass (Echinochloa crus-qalli L.). The assay is described as above. As to conditions: active ingredient amount 31 g/ha, 14th day after application. The method in brief:
as §3

Assay [15] has as its system velvetleaf (Abutilon theophrasti MEDIC.). Described as above. As to conditions: active ingredient amount 31 g/ha, 14th day after application. The method in brief: as §3
Assay [16] concerns soybean (Glycine max Merr.). The description is as above. As to conditions: active ingredient amount 31 g/ha, 14th day after application. The method in brief: as §3
In assay [17] the test system is rice (Oryza sativa L.). The assay is described as above. As to conditions: active ingredient amount 31 g/ha, 14th day after application. Put shortly:
as §3

Assay [18] deals with redroot pigweed (Amaranthus retroflexus L.). Described as above. As to conditions: active ingredient amount 31 g/ha, 14th day after application. Put shortly: as §3
Assay [19] concerns crabgrass (Digitaris sanquinalis L.). Described as above. As to conditions: active ingredient amount 31 g/ha, 14th day after application. The method in brief: as §3
Assay [20] concerns prickly sida (Sida spinosa L.). Described as above. As to conditions: active ingredient amount 31 g/ha, 14th day after application. The method in brief: as §3

`CCn1nc(C)c(O)c(-c2cc(Oc3cnc4cc(Cl)ccc4n3)ccc2C)c1=O` [Compound 3-96]: the “Growth inhibition rate (%) Green foxtail” value is reported as 100% in [1] and 85% in [11]. Also, the entries for the “Growth inhibition rate (%) Crabgrass” value in [2] and in assay [19] were 100% and 98%, respectively. The results for the “Growth inhibition rate (%) Corn” value in the assay on corn (Zea mays L.) [3] and in the assay on corn (Zea mays L.) [12] were 20% and 0%, respectively. The “Growth inhibition rate (%) Wheat” value in [4] is 95%; in assay [13], 0%. Besides, the “Growth inhibition rate (%) Barnyardgrass” value in [5] was determined as 100%; in assay [14] it was 99%. Besides, the “Growth inhibition rate (%) Soybean” value in [6] and in assay [16] was 0% each time. The “Growth inhibition rate (%) Wild oat” value in assay [7] was 98%. Further, the “Growth inhibition rate (%) Rice” value stood at 95% in the assay on rice (Oryza sativa L.) [8] and 75% in the assay with rice (Oryza sativa L.) [17]. Moreover, the “Growth inhibition rate (%) Redroot pigweed” value in assay [9] and in assay [18] was 0% each time. In [10], the “Growth inhibition rate (%) Italian ryegrass” value was 99%. Besides, the “Growth inhibition rate (%) Velvetleaf” value in [15] turned out to be 0%. Moreover, the “Growth inhibition rate (%) Prickly sida” value in assay [20] is 0%.

For `CCn1nc(C)c(OC(C)=O)c(-c2cc(Oc3cnc4cc(Cl)ccc4n3)ccc2C)c1=O` [Compound 3-97], the entries for the “Growth inhibition rate (%) Green foxtail” value in assay [1] and in assay [11] were 100% and 99%, respectively. Further, the “Growth inhibition rate (%) Crabgrass” value in assay [2] turned out to be 100%; in assay [19] it was 93%. In addition, the results for the “Growth inhibition rate (%) Corn” value in the assay with corn (Zea mays L.) [3] and in the assay with corn (Zea mays L.) [12] were 15% and 0%, respectively. Also, the “Growth inhibition rate (%) Wheat” value in [4] came out at 95%; in assay [13] it was 20%. The “Growth inhibition rate (%) Barnyardgrass” value in assay [5] worked out at 100%; in assay [14], 95%. Moreover, the “Growth inhibition rate (%) Soybean” value in assay [6] and in assay [16] was 0% each time. Also, the “Growth inhibition rate (%) Wild oat” value in assay [7] is listed as 100%. Further, the “Growth inhibition rate (%) Rice” value in the assay with rice (Oryza sativa L.) [8] came to 75%; in the assay on rice (Oryza sativa L.) [17], 20%. Also, the “Growth inhibition rate (%) Redroot pigweed” value in assay [9] and in assay [18] was 0% in each case. In addition, the “Growth inhibition rate (%) Italian ryegrass” value in assay [10] is listed as 99%. Moreover, the “Growth inhibition rate (%) Velvetleaf” value in [15] is given as 0%. In addition, the “Growth inhibition rate (%) Prickly sida” value in [20] was determined as 0%.
